Marks after values point to notes of the source that are not given here.
Columns and labels:
adjuvant arthritis mice [1] = assay: Adjuvant arthritis mice: phlogogenic paw swelling (paw thickness); type: in vivo, Kunming mice; conditions: koumine 0.8, 4, 20 mg/kg intragastric once daily; Day 4-18 after inflammation
Protocol: BCG was inactivated in water bath at 80° C., and fully emulsified along with complete Freund's adjuvant to form complete Freund's adjuvant emulsion containing 5 mg/ml BCG, preserved at 4° C., and shake well before use. The Kunming mice were divided into a modeling group and a false modeling group. According to the method recited in the literature [Rasool M, Sabina E P, Lavanya B. Anti-inflammatory effect of Spirulina fusiformis on adjuvant-induced arthritis in mice. Biol Pharm Bull. 2006, 29(12):2483-7], for the modeling group, the model was prepared by intradermal injection of 20 ul the emulsion under the plantar surface of right paws after the mice was narcotized; for the false modeling group, the emulsion was replaced with physiological saline. For the modeling group, the animals were screened on Day 8 after injection: the mice with the injected paw thickness increased >0.5 mm and thermal hyperalgesia occurred (paw thermal withdrawal latency <8 second) were selected as experimental subjects. […]
According to Methodology of Pharmacological Experiment (Shuyun Xu, Rulian Bian: Methodology of Pharmacological Experiment [M], 3rd Ed., People's Medical Publishing House: 912-913), paw thickness was selected as a paw swelling index and was measured using vernier caliper, measuring timing is the same as above, each measurement repeats 3 times and the average was taken (similarly hereinafter).

adjuvant arthritis mice [2] = assay: Adjuvant arthritis mice: hyperalgesia (phlogogenic paw thermal withdrawal latency); type: in vivo, Kunming mice
Protocol: (§1) BCG was inactivated in water bath at 80° C., and fully emulsified along with complete Freund's adjuvant to form complete Freund's adjuvant emulsion containing 5 mg/ml BCG, preserved at 4° C., and shake well before use. The Kunming mice were divided into a modeling group and a false modeling group. According to the method recited in the literature [Rasool M, Sabina E P, Lavanya B. Anti-inflammatory effect of Spirulina fusiformis on adjuvant-induced arthritis in mice. Biol Pharm Bull. 2006, 29(12):2483-7], for the modeling group, the model was prepared by intradermal injection of 20 ul the emulsion under the plantar surface of right paws after the mice was narcotized; for the false modeling group, the emulsion was replaced with physiological saline. For the modeling group, the animals were screened on Day 8 after injection: the mice with the injected paw thickness increased >0.5 mm and thermal hyperalgesia occurred (paw thermal withdrawal latency <8 second) were selected as experimental subjects. The selected mice were divided into 5 groups randomly: low, middle, high dose treatment group (0.8, 4, 20 mg/kg); indomethacin positive control group (10 mg/kg); negative control group (physiological saline), each comprising 12 animals. Day 8 after inflammation, intragastric administration was carried out on each group to give corresponding intervention, one time per day for 10 days continuously.
30 min after intragastric administration, the phlogogenic paw thermal withdrawal latency of the mice in each group was determined by photo-thermal dolorimeter to reflect animals' hyperalgesia status.

[3] = tested on: type II collagen-induced arthritis rat; assay: Type II collagen-induced arthritis rat: paw swelling degree and arthritis index; type: in vivo, Wistar rat; conditions: koumine 0.6, 3, 15 mg/kg intragastric; Day 5, Day 10 of intervention; dose dependent
Protocol: Under aseptic conditions, 10 mg chicken type II collagen protein was fully mixed with 5 ml 10 mM glacial acetic acid solution, and stirred overnight in refrigerator at 4° C. to fully dissolve it. It was mixed with complete Freund's adjuvant in equal volume in ice bath to fully emulsify into an emulsion with a collagen concentration of 1 mg/ml.
Wistar rats are divided into a modeling group and a false modeling group. After the modeling group rats were narcotized with intraperitoneal injection of pentobarbital, the above emulsion was injected intracutaneously at 3 to 4 positions at back, tail root or the like, 0.3 ml for each, an primary immunity was carried out. After 7 days, a secondary immunity was carried out, the emulsifying agent complete Freund's adjuvant of initial immunity was replaced with incomplete Freund's adjuvant, 0.1 ml the emulsion was injected under sevoflurane inhalation anesthesia wherein the injection position is different from the last time. In false modeling group, the emulsion was replaced with solvent glacial acetic acid solution.
Successfully modeled rat in the modeling group were randomly divide into 5 groups: low, middle, high-dose koumine treatment group, positive control group, negative control group, 10 rats for each group. […]

adjuvant arthritis mice [4] = assay: Adjuvant arthritis mice: condition and body weight; type: in vivo, Kunming mice
Protocol: as §1, with “Day 8 after inflammation, intragastric administration was carried out on each group to give corresponding intervention, one time per day for 10 days continuously.” left out

[5] = koumine 0.8 mg/kg intragastric once daily from Day 8
[6] = koumine 4 mg/kg intragastric once daily from Day 8
[7] = koumine 20 mg/kg intragastric once daily from Day 8

## C=CC12CN(C)C3CC14C(=Nc1ccccc14)C1CC2C3CO1 (stereo not drawn) [Koumine]
Adjuvant arthritis mice [1]
  Effect on phlogogenic paw thickness (FIG. 2): reduces the phlogogenic paw thickness of adjuvant arthritis mice in dose and time-dependent manner
Adjuvant arthritis mice [2]; koumine 0.8 mg/kg intragastric once daily for 10 days from Day 8 after inflammation
  Thermal stimulus withdrawal latency, Before intervention: 14.1 ± 1.1 s
Adjuvant arthritis mice [2]; [5]
  Thermal stimulus withdrawal latency, Intervention Day 4: 5.9 ± 1.3^★★ second
  Thermal stimulus withdrawal latency, Intervention Day 8: 4.9 ± 1.1^★★ second
  Thermal stimulus withdrawal latency, Intervention Day 12: 4.9 ± 1.0*^★ second
  Thermal stimulus withdrawal latency, Intervention Day 16: 5.9 ± 1.0**^★ second
  Thermal stimulus withdrawal latency, Intervention Day 18: 6.1 ± 1.2**^★★ second
Adjuvant arthritis mice [2]; koumine 4 mg/kg intragastric once daily for 10 days from Day 8 after inflammation
  Thermal stimulus withdrawal latency, Before intervention: 13.6 ± 1.1 s
Adjuvant arthritis mice [2]; [6]
  Thermal stimulus withdrawal latency, Intervention Day 4: 5.8 ± 1.5^★★ second
  Thermal stimulus withdrawal latency, Intervention Day 8: 4.3 ± 0.8 s
  Thermal stimulus withdrawal latency, Intervention Day 12: 6.7 ± 1.9**^★ second
  Thermal stimulus withdrawal latency, Intervention Day 16: 7.8 ± 1.9**^★ second
  Thermal stimulus withdrawal latency, Intervention Day 18: 8.4 ± 1.8**^★★ second
Adjuvant arthritis mice [2]; koumine 20 mg/kg intragastric once daily for 10 days from Day 8 after inflammation
  Thermal stimulus withdrawal latency, Before intervention: 13.9 ± 1.1 s
Adjuvant arthritis mice [2]; [7]
  Thermal stimulus withdrawal latency, Intervention Day 4: 6.1 ± 1.4^★★ second
  Thermal stimulus withdrawal latency, Intervention Day 8: 4.7 ± 1.5^★★ second
  Thermal stimulus withdrawal latency, Intervention Day 12: 9.2 ± 1.2**^★ second
  Thermal stimulus withdrawal latency, Intervention Day 16: 10.7 ± 1.2**^★★ second
  Thermal stimulus withdrawal latency, Intervention Day 18: 10.8 ± 1.1**^★★ second
Adjuvant arthritis mice [2]; koumine 0.8, 4, 20 mg/kg intragastric, dose-effect and time-effect relationships
  Effect on thermal stimulus withdrawal latency (summary of Table 1): can significantly extend the thermal stimulus withdrawal latency
[3]
  Effect on arthritis index (FIG. 7): reduces arthritis index
  Effect on paw swelling, paw volume (FIG. 6): relieves the paw swelling
Adjuvant arthritis mice [4]; koumine 0.8, 4, 20 mg/kg intragastric once daily, Day 4-18 after inflammation
  Effect on body weight of adjuvant arthritis mice (FIG. 1): dose dependent antagonistic effect on body weight reducing
Adjuvant arthritis mice [4]; koumine treatment group 0.8, 4, 20 mg/kg intragastric, negative control decreased obviously
  Food intake and activity after inflammation: no obvious change was observed
